Measured values taken from patent US20060128702A1, “Heterocyclic and bicyclic compounds, compositions and methods” (priority 2004, published 2006).

What was measured:
[1] = test system: vascular cell adhesion molecule-1 (VCAM-1) expression; assay: VCAM-1 ELISA (inflammation assay in HAECs); format: cell-based; details: HAEC cell layers; TNFα (0.5 ng/mL) or glycated human serum albumin (300 μg/mL), 18-24 h; read-out: IC50, VCAM-1 enzyme-linked immunosorbent assay
Experimental: (§1) For inflammation assays, human aortic endothelial cells (HAECs) in 96 well plates were washed once with treatment medium (basal medium containing 1% FBS). Cells were treated with an inflammatory agent such as TNFα (0.5 ng/mL) or glycated human serum albumin (US Biologicals) as source of advanced glycation end products (AGEs) (300 μg/mL) for 18-24 h in the presence or absence of specified amount of compound. Cell supernatants were collected and used for measuring MCP-1 (monocyte chemoattractant protein 1) or IL-6 (interleukin-6) expression by ELISA. Cell layers were washed and used for determining vascular cell adhesion molecule-1 (VCAM-1) expression.
The cells were fixed cells with 100% methanol for 10 min at room temperature. The methanol was removed and the plate was air-dried. 100 μl of 1:1000 diluted primary antibody (polyclonal goat anti-human VCAM-1—R&D Systems #BBA19) was then added and incubated for 2 h at 37 C. The cells were washed with PBS and 100 μl of 1:5000 dilution of secondary antibody (rabbit anti-goat IgG-HRP—Zymed #81-1620) was added and incubated for 1 h at room temperature. Cells were washed and 100 μl of substrate solution (R&D Systems# DY999) was added and incubated for 20 min in the dark at room temp. 50 μl of stop solution (2N sulfuric acid) was added to the wells and absorbency at 450 nm was noted.

[2] = test system: MCP-1 (monocyte chemoattractant protein 1) expression; assay: MCP-1 ELISA (inflammation assay in HAECs); format: cell-based; details: Endothelial cell; HAEC supernatants; TNFα (0.5 ng/mL) or glycated human serum albumin (300 μg/mL), 18-24 h; read-out: IC50, MCP-1 enzyme-linked immunosorbent assay
Experimental: as §1
MCP-1 ELISA was carried out using Quantikine Human MCP-1 kit as described by the manufacturer (R&D Systems, Inc.). Mouse anti-human MCP-1 was used as the capture antibody and HRP (horse radish peroxidase)-conjugated goat anti-human MCP-1 antibody was used as detection antibody. Culture medium was incubated with the capture antibody (in 96-well plate) for 2 h at room temperature. Wells were washed three times with wash buffer (0.05% Tween-20 in PBS) followed by incubation with detection antibody for 2 h at room temperature. Color development was read at […] in a microplate reader.

[3] = test system: human aortic smooth muscle cells; assay: Smooth muscle cell proliferation assay; format: cell-based; details: human aortic SMC, growth medium containing serum, 24 h post treatment; for IC50: read-out: Effect: concentration giving 50% inhibition of smooth muscle cell proliferation
Experimental: Primary cultures of human aortic smooth muscle cells were obtained from Clonetics. SMC were initially grown in T-75 flasks prior to seeding in 96 well plates. The 96-well plates were seeded with 4000 cells/well. The following day cells were washed with serum free medium and left in serum free media for 24 hours for serum starvation. The next day cells received growth medium containing serum with or without compound. The 24 h post treatment cell proliferation was assayed either assessing the incorporation of radiolabeled thymidine to DNA or using a non-radioactive cell proliferation kit from Promega (CellTiter AQ).

[4] = test system: IL-6 (interleukin-6) expression; assay: IL-6 ELISA (inflammation assay in HAECs); format: cell-based; details: endothelial cell media; TNFα (0.5 ng/mL) or glycated human serum albumin (300 μg/mL), 18-24 h; read-out: IC50, IL-6 enzyme-linked immunosorbent assay
Experimental: as §1
IL-6 expression in endothelial cell media were determined using DuaSet IL-6 ELISA kit from R&D Systems (Cat No DY206) as described by the manufacturer. Mouse anti-human IL-6 antibody was used as the capture antibody and biotinylated goat anti-human IL-6 was used as detection antibody. Culture medium was incubated with the capture antibody (in 96-well plate) for 2 h at room temperature. Wells were washed three times with wash buffer (0.05% Tween-20 in PBS) followed by incubation with detection antibody for 2 h at room temperature. The wells were then incubated with streptavidin HRP and color development was read at 450 nm in a microplate reader.

Structure (SMILES)	melting point [°C]	IC50 [1] [µM]	IC50 [2] [µM]	other results
FC(F)(F)c1ccn(-c2cc(-c3ccc4c(c3)OCO4)nc3ccccc23)n1 [E 15, 2-Benzo[1,3]dioxol-5-yl-4-(3-trifluoromethyl-pyrazol-1-yl)-quinoline]	98 to 100	5	4.2	–
Fc1ccc(-c2cc(-n3ccc(C(F)(F)F)n3)c3ccccc3n2)cc1 [E 11, 2-(4-Fluoro-phenyl)-4-(3-trifluoromethyl-pyrazol-1-yl)-quinoline]	–	–	–	IC50 [3]: 1 µM
FC(F)(F)c1ccn(-c2cc(N3CCOCC3)nc3ccccc23)n1 [E 20, 2-Morpholin-4-yl-4-(3-trifluoromethyl-pyrazol-1-yl)-quinoline]	118 to 120	–	–	–
COc1ccc(Nc2cc(-c3ccccc3)nc3ccccc23)cc1Cl [E 5, (3-Chloro-4-methoxy-phenyl)-(2-phenyl-quinolin-4-yl)-amine]	272 to 274	–	–	IC50 [4]: 2 µM
COc1ccc(Nc2cc(-c3ccc(F)cc3)nc3ccccc23)cc1Cl [E 8, (3-Chloro-4-methoxy-phenyl)-[2-(4-fluoro-phenyl)-quinolin-4-yl]-amine]	260	3.6	2.1	inhibition at 1 µM ([3]; at 1 μM, read-out: Effect: % inhibition of smooth muscle cell proliferation): 77%
COc1ccc(Nc2cc(-c3ccncc3)nc3ccccc23)cc1Cl [E 1, (3-Chloro-4-methoxy-phenyl)-(2-pyridin-4-yl-quinolin-4-yl)-amine]	280 to 282	–	–	–
FC(F)(F)Oc1ccc(-c2cc(-n3ccc(C(F)(F)F)n3)c3ccccc3n2)cc1 [E 18, 2-(4-Trifluoromethoxy-phenyl)-4-(3-trifluoromethyl-pyrazol-1-yl)-quinoline]	108 to 110	–	–	IC50 [3]: 2.33 µM
Oc1ccc(-c2nc(-c3ccccc3)nc3ccccc23)c(O)c1 [E 4, 4-(2-Phenyl-quinazolin-4-yl)-benzene-1,3-diol]	178 to 180	–	–	–
FC(F)(F)Oc1ccc(Nc2cc(-n3ccc(C(F)(F)F)n3)c3ccccc3n2)cc1 [E 19, (4-Trifluoromethoxy-phenyl)-[4-(3-trifluoromethyl-pyrazol-1-yl)-quinolin-2-yl]-amine]	128 to 130	1	1	–
COc1ccc(Nc2nc(-c3ccc(F)cc3)cc3ccc(C)cc23)cc1F [E 7, (3-Fluoro-4-methoxy-phenyl)-[3-(4-fluoro-phenyl)-7-methyl-isoquinolin-1-yl]-amine]	163 to 165	–	5	–
CNS(=O)(=O)c1ccc(Nc2cc(-n3ccc(C(F)(F)F)n3)c3ccccc3n2)cc1 [E 21, N-Methyl-4-[4-(3-trifluoromethyl-pyrazol-1-yl)-quinolin-2-ylamino]-benzenesulfonamide]	220 to 222	0.61	0.43	–
COc1ccc(Nc2nc(-c3ccncc3)nc3ccccc23)cc1Cl [E 2, (3-Chloro-4-methoxy-phenyl)-(2-pyridin-4-yl-quinazolin-4-yl)-amine]	> 220	–	–	–
COc1cc(Nc2cc(-c3ccc(F)cc3)nc3ccccc23)ccc1Cl [E 13, (4-Chloro-3-methoxy-phenyl)-[2-(4-fluoro-phenyl)-quinolin-4-yl]-amine]	274 to 276	3.5	5	–
CNC(=O)c1ccc(Nc2cc(-n3ccc(C(F)(F)F)n3)c3ccccc3n2)cc1 [E 22, N-Methyl-4-[4-(3-trifluoromethyl-pyrazol-1-yl)-quinolin-2-ylamino]-benzamide]	250 to 252	2.1	0.75	–
Clc1ccc2c(ccn2-c2cc(-c3ccccc3)nc3ccccc23)c1 [E 10, 4-(5-Chloro-indol-1-yl)-2-phenyl-quinoline]	148 to 150	–	–	–
CS(=O)(=O)c1ccc(-c2cc(-n3ccc(C(F)(F)F)n3)c3ccccc3n2)cc1 [E 17, 2-(4-Methanesulfonyl-phenyl)-4-(3-trifluoromethyl-pyrazol-1-yl)-quinoline]	194 to 196	–	–	–
c1ccc(-c2cc(-n3ccc4ccccc43)c3ccccc3n2)cc1 [E 9, 4-Indol-1-yl-2-phenyl-quinoline]	100 to 102	–	–	–
CSc1ccc(-c2cc(-n3ccc(C(F)(F)F)n3)c3ccccc3n2)cc1 [E 16, 2-(4-Methylsulfanyl-phenyl)-4-(3-trifluoromethyl-pyrazol-1-yl)-quinoline]	116 to 118	–	–	IC50 [3]: 1.16 µM
Oc1ccc(-c2nc(-c3ccncc3)nc3ccccc23)c(O)c1 [E 3, 4-(2-Pyridin-4-yl-quinazolin-4-yl)-benzene-1,3-diol]	280 to 282	–	–	–
CS(=O)(=O)c1ccc(Nc2cc(-n3ccc(C(F)(F)F)n3)c3ccccc3n2)cc1 [E 23, (4-Methanesulfonyl-phenyl)-[4-(3-trifluoromethyl-pyrazol-1-yl)-quinolin-2-yl]-amine]	194 to 196	8.1	9	–
COc1ccc(Nc2nc(-c3ccc(F)cc3)cc3ccc(C)cc23)cc1Cl [E 6, (3-Chloro-4-methoxy-phenyl)-[3-(4-fluoro-phenyl)-7-methyl-isoquinolin-1-yl]-amine]	154 to 156	–	–	–
